Test results: patent US11834453B2, “Substituted pyrimido[5,4-d]pyrimidines as HER2 inhibitors” (Array BioPharma Inc., priority 2020, dated 2023)
Read-outs that look alike come from different tables or passages of the source.

What was measured:
[1] = molecular target: ErbB2 with Exon 20 YVMA insertion (HER2-YVMA) (Homo sapiens (Human), UniProt P04626, INS775YVMA); assay: Cellular phosphorylation assay, constitutive ErbB2 phosphorylation (Y1196) in engineered NIH 3T3 cells, Assay 4; type: cell-based
Method in brief: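 Engineered NIH 3T3 cells expressing HER2-YVMA treated with compounds 1 h at 37 °C, then formaldehyde-fixed and methanol-permeabilized. pErbB2 Y1196 detected by in-cell infrared immunofluorescence, normalized to GAPDH. IC50 from the normalized curves.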

[2] = molecular target: ErbB2 WT (Homo sapiens (Human), UniProt P04626); assay: ErbB enzyme assay (CisBio HTRF KinEASE-TK), Assay 2; type: biochemical
Chain of ErbB2 WT (P04626 23-1255): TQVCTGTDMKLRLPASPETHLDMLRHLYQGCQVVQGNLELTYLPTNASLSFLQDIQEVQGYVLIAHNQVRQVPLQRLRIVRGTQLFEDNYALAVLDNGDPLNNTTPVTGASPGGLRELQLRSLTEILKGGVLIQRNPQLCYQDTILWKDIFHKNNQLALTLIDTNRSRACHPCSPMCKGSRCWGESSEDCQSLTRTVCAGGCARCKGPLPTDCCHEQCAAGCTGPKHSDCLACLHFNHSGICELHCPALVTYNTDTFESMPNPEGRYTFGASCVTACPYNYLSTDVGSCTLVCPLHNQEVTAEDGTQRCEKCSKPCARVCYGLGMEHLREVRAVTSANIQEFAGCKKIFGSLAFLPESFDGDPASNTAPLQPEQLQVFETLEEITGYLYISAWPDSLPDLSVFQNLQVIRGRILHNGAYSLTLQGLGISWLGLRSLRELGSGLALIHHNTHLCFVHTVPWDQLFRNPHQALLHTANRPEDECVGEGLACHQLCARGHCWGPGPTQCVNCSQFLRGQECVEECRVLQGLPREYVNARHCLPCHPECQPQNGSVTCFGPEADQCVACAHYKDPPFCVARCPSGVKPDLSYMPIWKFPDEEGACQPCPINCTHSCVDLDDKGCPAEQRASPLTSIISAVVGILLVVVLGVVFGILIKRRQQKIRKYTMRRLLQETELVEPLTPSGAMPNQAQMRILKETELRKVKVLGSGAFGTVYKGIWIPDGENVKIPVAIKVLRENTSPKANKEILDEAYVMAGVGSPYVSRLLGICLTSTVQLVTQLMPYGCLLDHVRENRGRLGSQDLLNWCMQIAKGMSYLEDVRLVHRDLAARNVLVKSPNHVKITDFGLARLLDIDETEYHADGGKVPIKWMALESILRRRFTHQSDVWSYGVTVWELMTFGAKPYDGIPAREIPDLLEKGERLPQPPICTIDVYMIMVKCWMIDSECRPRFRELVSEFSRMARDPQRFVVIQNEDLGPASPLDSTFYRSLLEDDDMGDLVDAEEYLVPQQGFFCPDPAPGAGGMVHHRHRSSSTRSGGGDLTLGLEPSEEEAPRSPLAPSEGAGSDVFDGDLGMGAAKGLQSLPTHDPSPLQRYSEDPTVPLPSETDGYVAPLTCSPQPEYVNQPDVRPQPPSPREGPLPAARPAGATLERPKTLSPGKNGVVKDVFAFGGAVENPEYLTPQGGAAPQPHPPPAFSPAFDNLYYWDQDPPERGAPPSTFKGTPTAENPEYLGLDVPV
Method in brief: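 ErbB2 phosphorylates 250 nM biotin-TK substrate at 1 mM ATP in 25 mM HEPES pH 7.4, 10 mM MgCl2, 0.01% Triton X-100 and 2% DMSO, for 30 min at 22 °C. Product is detected by HTRF with Sa-XL665 and TK-Ab-Cryptate. Percent of control is set by DMSO-only wells and pre-quenched wells.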

[3] = molecular target: EGFR wild type (EGFR WT) (Homo sapiens (Human), UniProt P00533); assay: Cellular phosphorylation assay, EGF-stimulated EGFR phosphorylation in engineered NIH 3T3 cells, Phospho-EGFR DuoSet IC ELISA, Assay 5; type: cell-based
Chain of EGFR wild type (EGFR WT) (P00533 25-1210): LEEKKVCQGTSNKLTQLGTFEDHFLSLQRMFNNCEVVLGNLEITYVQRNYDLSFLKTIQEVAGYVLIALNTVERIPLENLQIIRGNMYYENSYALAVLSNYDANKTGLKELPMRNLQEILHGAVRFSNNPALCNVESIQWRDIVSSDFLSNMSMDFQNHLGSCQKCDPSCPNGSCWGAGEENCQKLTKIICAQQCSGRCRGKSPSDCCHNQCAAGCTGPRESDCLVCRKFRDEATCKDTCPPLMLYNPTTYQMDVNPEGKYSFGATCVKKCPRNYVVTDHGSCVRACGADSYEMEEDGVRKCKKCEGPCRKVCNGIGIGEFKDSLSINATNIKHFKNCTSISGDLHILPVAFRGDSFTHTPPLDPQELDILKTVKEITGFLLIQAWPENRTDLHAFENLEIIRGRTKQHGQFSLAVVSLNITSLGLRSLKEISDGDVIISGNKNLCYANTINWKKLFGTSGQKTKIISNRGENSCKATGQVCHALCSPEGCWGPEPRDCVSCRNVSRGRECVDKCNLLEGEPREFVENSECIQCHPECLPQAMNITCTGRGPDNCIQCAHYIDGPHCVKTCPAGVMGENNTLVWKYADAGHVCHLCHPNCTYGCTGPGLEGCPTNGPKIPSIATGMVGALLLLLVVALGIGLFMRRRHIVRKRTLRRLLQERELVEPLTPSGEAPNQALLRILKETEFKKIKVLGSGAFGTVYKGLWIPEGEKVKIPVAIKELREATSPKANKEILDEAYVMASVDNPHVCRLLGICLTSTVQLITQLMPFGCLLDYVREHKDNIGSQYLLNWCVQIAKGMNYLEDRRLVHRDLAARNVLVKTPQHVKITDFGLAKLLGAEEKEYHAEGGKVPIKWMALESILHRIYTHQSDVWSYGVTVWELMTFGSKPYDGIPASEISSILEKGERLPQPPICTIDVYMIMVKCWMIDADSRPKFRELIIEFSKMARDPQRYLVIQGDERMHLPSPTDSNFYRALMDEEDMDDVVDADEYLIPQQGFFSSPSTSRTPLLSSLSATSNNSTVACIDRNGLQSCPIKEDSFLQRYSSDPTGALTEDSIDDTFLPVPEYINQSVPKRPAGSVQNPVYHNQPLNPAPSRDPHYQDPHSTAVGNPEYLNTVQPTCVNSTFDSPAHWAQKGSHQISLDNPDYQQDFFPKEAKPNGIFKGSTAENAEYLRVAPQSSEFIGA
Method in brief: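 NIH 3T3 cells expressing EGFR WT (20,000/well, attached overnight) were exposed to serially diluted compound for 1 h at 37 °C, then stimulated with 100 ng/ml rEGF for 10 min. Phospho-EGFR in lysates measured by sandwich ELISA optical density; IC50 from curves.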

[4] = molecular target: EGFR (Homo sapiens (Human), UniProt P00533); assay: ErbB enzyme assay (CisBio HTRF KinEASE-TK), Assay 3; type: biochemical
Chain of EGFR (P00533 25-1210): as above
Method in brief: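 Inhibition is measured as reduced peptide phosphorylation by HTRF KinEASE-TK at 1 mM ATP and 250 nM substrate, 30 min at 22 °C. Values are IC50s from a 4-parameter logistic fit.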

[5] = molecular target: MDR1 (P-gp) (Homo sapiens (Human), UniProt P08183); assay: MDR1 transfected MDCKII canine Mdr1 knockout permeability/efflux, Assay 7; settings: for efflux ratio at 2 h, 1 μM: dog, MDCK-MDR1
Chain of MDR1 (P-gp) (P08183 whole entry): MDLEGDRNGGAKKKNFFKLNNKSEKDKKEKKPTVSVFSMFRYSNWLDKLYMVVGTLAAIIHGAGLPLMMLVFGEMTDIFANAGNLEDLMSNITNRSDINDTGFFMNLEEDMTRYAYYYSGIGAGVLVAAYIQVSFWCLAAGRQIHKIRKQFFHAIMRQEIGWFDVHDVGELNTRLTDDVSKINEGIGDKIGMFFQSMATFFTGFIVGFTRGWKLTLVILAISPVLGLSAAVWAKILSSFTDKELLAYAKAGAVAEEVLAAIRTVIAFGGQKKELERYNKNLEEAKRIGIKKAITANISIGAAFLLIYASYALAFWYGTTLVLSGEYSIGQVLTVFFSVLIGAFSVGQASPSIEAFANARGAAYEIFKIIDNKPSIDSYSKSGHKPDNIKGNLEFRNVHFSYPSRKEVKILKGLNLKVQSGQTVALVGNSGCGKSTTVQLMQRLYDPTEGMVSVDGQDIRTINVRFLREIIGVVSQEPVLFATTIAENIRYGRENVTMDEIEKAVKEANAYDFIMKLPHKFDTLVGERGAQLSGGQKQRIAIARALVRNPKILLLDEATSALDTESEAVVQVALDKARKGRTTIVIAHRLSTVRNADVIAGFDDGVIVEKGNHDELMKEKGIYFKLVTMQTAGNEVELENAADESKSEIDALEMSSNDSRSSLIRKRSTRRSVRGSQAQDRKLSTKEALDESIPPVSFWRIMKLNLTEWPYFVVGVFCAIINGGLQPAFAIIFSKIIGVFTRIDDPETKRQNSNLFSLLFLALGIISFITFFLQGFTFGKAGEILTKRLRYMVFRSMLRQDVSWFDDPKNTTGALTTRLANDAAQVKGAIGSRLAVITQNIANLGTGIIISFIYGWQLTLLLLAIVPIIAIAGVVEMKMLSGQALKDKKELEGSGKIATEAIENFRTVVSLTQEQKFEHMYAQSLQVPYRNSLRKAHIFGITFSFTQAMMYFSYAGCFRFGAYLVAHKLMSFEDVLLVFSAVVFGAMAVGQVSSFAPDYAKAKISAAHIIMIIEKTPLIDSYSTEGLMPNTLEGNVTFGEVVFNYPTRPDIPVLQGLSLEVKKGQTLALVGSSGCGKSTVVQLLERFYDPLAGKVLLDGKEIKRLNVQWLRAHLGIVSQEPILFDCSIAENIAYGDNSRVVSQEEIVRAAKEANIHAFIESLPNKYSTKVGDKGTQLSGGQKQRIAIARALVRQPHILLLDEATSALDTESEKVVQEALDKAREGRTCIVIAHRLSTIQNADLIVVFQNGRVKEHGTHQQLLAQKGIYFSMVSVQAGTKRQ

[6] = molecular target: ErbB2 insYVMA (HER2-YVMA, SEQ ID NO: 2) (Homo sapiens, UniProt P04626, INS775YVMA/P1170A); assay: biochemical; settings: ErbB2 insYVMA enzyme assay
[7] = molecular target: BCRP (Homo sapiens (Human), UniProt Q9UNQ0); assay: BCRP transfected MDCKII canine Mdr1 knockout permeability/efflux, Assay 9; settings: for efflux ratio at 2 h, 1 μM: dog
[8] = Assay 9 Pe Ratio, efflux ratio Papp(B-A)/Papp(A-B), BCRP transfected MDCKII canine Mdr1 knockout

## Cc1cc(Nc2ncnc3cnc(N4CC[C@@]45CCOC5)nc23)ccc1Oc1ccc2c(c1)ncn2C (single isomer, unassigned) [Example 93a]
[1]
  IC50: 20.6 nM
[2]
  IC50: 16 nM
[3]
  IC50: ≥ 5000 nM
[4]
  IC50: 1460 nM
[5]
  efflux ratio at 2 h, 1 μM: 1.3
[6]; read-out: Assay 1 IC50
  IC50: 17 nM
[7]
  efflux ratio at 2 h, 1 μM: 1.9

## Cc1cc(Nc2ncnc3cnc(N4C[C@@H](F)[C@@H](O)C4)nc23)ccc1Oc1ccc2c(c1)ncn2C [Example 91, (3S,4R)-4-fluoro-1-(8-((3-methyl-4-((1-methyl-1H-benzo[d]imidazol-5-yl)oxy)phenyl)amino)pyrimido[5,4-d]pyrimidin-2-yl)pyrrolidin-3-ol]
[1]
  IC50: 14.1 nM
[2]
  IC50: 20.6 nM
[3]
  IC50: ≥ 5000 nM
[4]
  IC50: 6830 nM
[5]
  efflux ratio at 2 h, 1 μM: 2.5
[6]; read-out: Assay 1 IC50
  IC50: 12.8 nM
[7]; [8]
  efflux ratio at 2 h, 1 μM: 50.1

## Cn1cnc2cc(Oc3ccc(Nc4ncnc5cnc(N6CC[C@H](CC#N)C6)nc45)cc3Cl)ccc21 [Example 358]
[1]
  IC50: 19.2 nM
[2]
  IC50: 35.8 nM
[3]
  IC50: ≥ 5000 nM
[4]
  IC50: ≥ 10000 nM
[5]
  efflux ratio at 2 h, 1 μM: 1.6
[6]; read-out: Assay 1 IC50
  IC50: 53.2 nM
[7]; [8]
  efflux ratio at 2 h, 1 μM: 8.9

## Cn1cnc2cc(Oc3ccc(Nc4ncnc5cnc(N6CCN[C@@H](C(F)(F)F)C6)nc45)cc3Cl)ccc21.O=C(O)C(F)(F)F [Example 146, (R)—N-(3-chloro-4-((1-methyl-1H-benzo[d]imidazol-5-yl)oxy)phenyl)-6-(3-(trifluoromethyl)piperazin-1-yl)pyrimido[5,4-d]pyrimidin-4-amine 2,2,2-trifluoroacetate]
[1]
  IC50: 35.5 nM
[2]
  IC50: 58.2 nM
[3]
  IC50: ≥ 5000 nM
[4]
  IC50: 3720 nM
[5]
  efflux ratio at 2 h, 1 μM: 0.8
[6]; Assay 1 IC50 (nM)
  IC50: 54.1 nM
[7]
  efflux ratio at 2 h, 1 μM: 5.1

## Cc1cc(Nc2ncnc3cnc(N4CC[C@@](C)(O)C4)nc23)ccc1Oc1ccn2ncnc2c1 [Example 110, (R)-1-(8-((4-([1,2,4]triazolo[1,5-a]pyridin-7-yloxy)-3-methylphenyl)amino)pyrimido[5,4-d]pyrimidin-2-yl)-3-methylpyrrolidin-3-ol]
[1]
  IC50: 61.7 nM
[2]
  IC50: 32.8 nM
[3]
  IC50: ≥ 5000 nM
[4]
  IC50: 3170 nM
[5]
  efflux ratio at 2 h, 1 μM: 1.9
[6]; read-out: Assay 1 IC50
  IC50: 33.5 nM
[7]; [8]
  efflux ratio at 2 h, 1 μM: 32.2

## Cc1cc(Nc2ncnc3cnc(N4CC[C@@H](C(C)(C)O)C4)nc23)ccc1Oc1ccc2c(c1)ncn2C [Example 113, (R)-2-(1-(8-((3-methyl-4-((1-methyl-1H-benzo[d]imidazol-5-yl)oxy)phenyl)amino)pyrimido[5,4-d]pyrimidin-2-yl)pyrrolidin-3-yl)propan-2-ol]
[1]
  IC50: 9.5 nM
[2]
  IC50: 23 nM
[3]
  IC50: ≥ 5000 nM
[4]
  IC50: 8480 nM
[5]
  efflux ratio at 2 h, 1 μM: 0.9
[6]; read-out: Assay 1 IC50
  IC50: 13.1 nM
[7]; [8]
  efflux ratio at 2 h, 1 μM: 11

## Cc1cc(Nc2ncnc3cnc(N(C)[C@@H]4CCC[C@H]4O)nc23)ccc1Oc1ccc2c(c1)ncn2C [Example 193, (1R,2R)-2-(methyl(8-((3-methyl-4-((1-methyl-1H-benzo[d]imidazol-5-yl)oxy)phenyl)amino)pyrimido[5,4-d]pyrimidin-2-yl)amino)cyclopentan-1-ol]
[1]
  IC50: 45.6 nM
[2]
  IC50: 31 nM
[3]
  IC50: ≥ 5000 nM
[4]
  IC50: 4570 nM
[5]
  efflux ratio at 2 h, 1 μM: 1.6
[6]; read-out: Assay 1 IC50
  IC50: 21.2 nM
[7]; [8]
  efflux ratio at 2 h, 1 μM: 7

## Cc1cc(Nc2ncnc3cnc(N4CCN5CCOC[C@@H]5C4)nc23)ccc1Oc1ccc2c(c1)ncn2C [Example 190, (S)-6-(hexahydropyrazino[2,1-c][1,4]oxazin-8(1H)-yl)-N-(3-methyl-4-((1-methyl-1H-benzo[d]imidazol-5-yl)oxy)phenyl)pyrimido[5,4-d]pyrimidin-4-amine]
[1]
  IC50: 14.1 nM
[2]
  IC50: 35 nM
[3]
  IC50: ≥ 5000 nM
[4]
  IC50: 8140 nM
[5]
  efflux ratio at 2 h, 1 μM: 1.3
[6]; read-out: Assay 1 IC50
  IC50: 21.5 nM
[7]; [8]
  efflux ratio at 2 h, 1 μM: 4.7

## Cc1cc(Nc2ncnc3cnc(N4C[C@H](O)C5(CC5)C4)nc23)ccc1Oc1ccc2c(c1)ncn2C [Example 212, (R)-5-(8-((3-methyl-4-((1-methyl-1H-benzo[d]imidazol-5-yl)oxy)phenyl)amino)pyrimido[5,4-d]pyrimidin-2-yl)-5-azaspiro[2.4]heptan-7-ol]
[1]
  IC50: 10.3 nM
[2]
  IC50: 22.9 nM
[3]
  IC50: ≥ 5000 nM
[4]
  IC50: 2410 nM
[5]
  efflux ratio at 2 h, 1 μM: 2.8
[6]; read-out: Assay 1 IC50
  IC50: 12.8 nM
[7]
  efflux ratio at 2 h, 1 μM: 31.4

## Cc1cc(Nc2ncnc3cnc(N4CCO[C@H](C)C4)nc23)ccc1Oc1ccc2c(c1)ncn2C [Example 265]
[1]
  IC50: 16.8 nM
[2]
  IC50: 45.6 nM
[3]
  IC50: ≥ 5000 nM
[4]
  IC50: 5350 nM
[5]
  efflux ratio at 2 h, 1 μM: 1.1
[6]; read-out: Assay 1 IC50
  IC50: 46.5 nM
[7]; [8]
  efflux ratio at 2 h, 1 μM: 1.8

## Cc1cc(Nc2ncnc3cnc(N4CC5(C4)CC(C)(O)C5)nc23)ccc1Oc1ccc2c(c1)ncn2C [Example 156, 6-methyl-2-(8-((3-methyl-4-((1-methyl-1H-benzo[d]imidazol-5-yl)oxy)phenyl)amino)pyrimido[5,4-d]pyrimidin-2-yl)-2-azaspiro[3.3]heptan-6-ol]
[1]
  IC50: 12.3 nM
[2]
  IC50: 5.2 nM
[3]
  IC50: ≥ 5000 nM
[4]
  IC50: ≥ 10000 nM
[5]
  efflux ratio at 2 h, 1 μM: 2
[6]; read-out: Assay 1 IC50
  IC50: 6.4 nM
[7]
  efflux ratio at 2 h, 1 μM: 26

## Cc1cc(Nc2ncnc3cnc(N(C)[C@H]4C[C@](C)(O)C4)nc23)ccc1Oc1ccc2c(c1)ncn2C [Example 171, (1r,3r)-1-methyl-3-(methyl(8-((3-methyl-4-((1-methyl-1H-benzo[d]imidazol-5-yl)oxy)phenyl)amino)pyrimido[5,4-d]pyrimidin-2-yl)amino)cyclobutan-1-ol]
[1]
  IC50: 7.1 nM
[2]
  IC50: 5.9 nM
[3]
  IC50: ≥ 5000 nM
[4]
  IC50: 472 nM
[5]
  efflux ratio at 2 h, 1 μM: 1.9
[6]; read-out: Assay 1 IC50
  IC50: 13.5 nM
[7]; [8]
  efflux ratio at 2 h, 1 μM: 8.6

## CO[C@@H]1CN(c2ncc3ncnc(Nc4ccc(Oc5ccc6c(c5)ncn6C)c(C)c4)c3n2)C[C@@H]1O [Example 194, (3S,4R)-4-methoxy-1-(8-((3-methyl-4-((1-methyl-1H-benzo[d]imidazol-5-yl)oxy)phenyl)amino)pyrimido[5,4-d]pyrimidin-2-yl)pyrrolidin-3-ol]
[1]
  IC50: 44.5 nM
[2]
  IC50: 23.5 nM
[3]
  IC50: ≥ 5000 nM
[4]
  IC50: 8730 nM
[5]
  efflux ratio at 2 h, 1 μM: 1.9
[6]; read-out: Assay 1 IC50
  IC50: 17.8 nM
[7]; [8]
  efflux ratio at 2 h, 1 μM: 32.4

## Cc1cc(Nc2ncnc3cnc(N4C[C@H]5C[C@@H]4C[C@@H]5O)nc23)ccc1Oc1ccc2c(c1)ncn2C [Example 157, (1R,4R,5S)-2-(8-((3-methyl-4-((1-methyl-1H-benzo[d]imidazol-5-yl)oxy)phenyl)amino)pyrimido[5,4-d]pyrimidin-2-yl)-2-azabicyclo[2.2.1]heptan-5-ol]
[1]
  IC50: 27.8 nM
[2]
  IC50: 56.8 nM
[3]
  IC50: ≥ 5000 nM
[4]
  IC50: ≥ 10000 nM
[5]; efflux ratio Papp(B-A)/Papp(A-B), MDR1 transfected MDCKII canine Mdr1 knockout
  Assay 7 Pe Ratio: 2.1
[6]; read-out: Assay 1 IC50
  IC50: 33.5 nM
[7]; efflux ratio Papp(B-A)/Papp(A-B), BCRP transfected MDCKII canine Mdr1 knockout
  Assay 9 Pe Ratio: 21.0

## Cc1cc(Nc2ncnc3cnc(N4CCN(C5COC5)CC4)nc23)ccc1Oc1ccc2c(c1)ncn2C [Example 159, N-(3-methyl-4-((1-methyl-1H-benzo[d]imidazol-5-yl)oxy)phenyl)-6-(4-(oxetan-3-yl)piperazin-1-yl)pyrimido[5,4-d]pyrimidin-4-amine]
[1]
  IC50: 17 nM
[2]
  IC50: 40.7 nM
[3]
  IC50: ≥ 5000 nM
[4]
  IC50: 7370 nM
[5]
  efflux ratio at 2 h, 1 μM: 2.1
[6]; read-out: Assay 1 IC50
  IC50: 28.7 nM
[7]; [8]
  efflux ratio at 2 h, 1 μM: 9.6

## CC(C)(O)[C@@H]1CCN(c2ncc3ncnc(Nc4ccc(Oc5ccn6ncnc6c5)c(Cl)c4)c3n2)C1 [Example 122, (R)-2-(1-(8-((4-([1,2,4]triazolo[1,5-a]pyridin-7-yloxy)-3-chlorophenyl)amino)pyrimido[5,4-d]pyrimidin-2-yl)pyrrolidin-3-yl)propan-2-ol]
[1]
  IC50: 19.7 nM
[2]
  IC50: 22.7 nM
[3]
  IC50: ≥ 5000 nM
[4]
  IC50: 953 nM
[5]
  efflux ratio at 2 h, 1 μM: 1.7
[6]; read-out: Assay 1 IC50
  IC50: 15.2 nM
[7]; [8]
  efflux ratio at 2 h, 1 μM: 7.3

## Cc1cc(Nc2ncnc3cnc(N4CC[C@@](C)(O)C4)nc23)c(F)cc1Oc1ccc2c(c1)ncn2C [Example 214, (R)-1-(8-((2-fluoro-5-methyl-4-((1-methyl-1H-benzo[d]imidazol-5-yl)oxy)phenyl)amino)pyrimido[5,4-d]pyrimidin-2-yl)-3-methylpyrrolidin-3-ol]
[1]
  IC50: 28.1 nM
[2]
  IC50: 46.6 nM
[3]
  IC50: ≥ 5000 nM
[4]
  IC50: ≥ 10000 nM
[5]
  efflux ratio at 2 h, 1 μM: 1.5
[6]; read-out: Assay 1 IC50
  IC50: 15.4 nM
[7]; [8]
  efflux ratio at 2 h, 1 μM: 8.8
